Laboratory results from US20100086599A1, “ORAL MODIFIED RELEASE FORMULATIONS” (KAIROSMED GMBH, priority 2006, published 2010).
Entries after “also recorded” stand apart in the source; their conditions may differ. Read-outs that look alike come from different tables or passages of the source. Blank lines part the entries; values can stand above or below the molecule they belong to.

Key:
CYP isoenzymes = experiment: metabolism by CYP isoenzymes; assay type: in vitro ADME
AR = biological target: T1, AR (Homo sapiens, UniProt P10275); conditions: cited from earlier work
T1 sequence (P10275 1-920): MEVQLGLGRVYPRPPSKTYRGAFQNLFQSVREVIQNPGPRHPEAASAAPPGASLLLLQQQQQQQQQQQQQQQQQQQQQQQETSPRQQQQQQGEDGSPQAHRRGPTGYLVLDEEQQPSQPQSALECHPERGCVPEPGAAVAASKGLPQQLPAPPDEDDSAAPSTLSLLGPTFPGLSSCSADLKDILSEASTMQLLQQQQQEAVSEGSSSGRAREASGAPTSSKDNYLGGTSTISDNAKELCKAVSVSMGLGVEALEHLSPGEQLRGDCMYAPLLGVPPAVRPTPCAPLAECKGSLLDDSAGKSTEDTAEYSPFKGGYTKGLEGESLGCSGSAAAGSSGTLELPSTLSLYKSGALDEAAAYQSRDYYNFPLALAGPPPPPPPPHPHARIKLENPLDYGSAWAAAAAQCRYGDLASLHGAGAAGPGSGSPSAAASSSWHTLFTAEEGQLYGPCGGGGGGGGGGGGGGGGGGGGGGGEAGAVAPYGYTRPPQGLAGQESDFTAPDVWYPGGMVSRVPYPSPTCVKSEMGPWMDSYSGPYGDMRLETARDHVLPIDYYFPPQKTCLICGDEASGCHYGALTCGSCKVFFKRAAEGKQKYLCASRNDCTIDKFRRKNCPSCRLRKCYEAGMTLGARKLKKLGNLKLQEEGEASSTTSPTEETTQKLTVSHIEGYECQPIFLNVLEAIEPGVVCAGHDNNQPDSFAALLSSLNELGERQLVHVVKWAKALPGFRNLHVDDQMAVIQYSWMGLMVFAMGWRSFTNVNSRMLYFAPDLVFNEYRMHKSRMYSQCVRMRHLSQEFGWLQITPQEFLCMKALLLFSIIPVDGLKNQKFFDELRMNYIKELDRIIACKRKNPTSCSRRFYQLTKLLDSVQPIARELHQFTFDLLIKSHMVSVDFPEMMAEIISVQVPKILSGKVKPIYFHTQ

[1] = pH-dependent solubility and in vitro dissolution of 8-PN; assay type: physicochemical
Description: The solid oral modified release formulations of this invention show a pH-independent drug release in vitro. This is important as the pH varies considerably in the gastro-intestinal tract and continuous release should be achieved independent of the pH. In contrast to C21-progestins (MPA, CPA, DRSP), however, the solubility of 8-PN is pH-dependent. […] The low acid solubility property of 8-Prenylnaringenin results in vitro in slow drug dissolution at pH 1, whereas the dissolution is fast at higher pH-values such as pH 6.8. The resulting dissolution profiles are different at different pH-values. This problem is solved by the solid oral modified release formulation of this invention. […]

estrogen receptor = conditions: cited from earlier work
[2] = clinical Phase Ia study: pharmacokinetics of oral 8-PN; assay type: in vivo, women
Description: The pharmacokinetic profile of 8-PN is characterized by a complete oral absorption, a low degree of metabolization (less than 60% of dose) and a high pre-systemic elimination (first-liver-pass excretion, about 55% of dose). The high and unexpected pre-systemic elimination leads to a collection of substantial dose parts in the bile fluid from which these dose parts are secreted into the duodenum when gastric signaling occurs with a meal uptake. Respective dose parts are then absorbed again and reach systemic circulation. Data were taken from the clinical Phase la study and represent two volunteers of the lowest dose group (50 mg 8-Prenylnaringenin).
Taking the total area under the curve as a measure for 8-Prenyinaringenin systemic availability, the percentage of the area under the second peak (generated by reabsorption of the pre-systemically eliminated and then biliary secreted dose parts) can be used to estimate those dose parts which undergo pre-systemic elimination after oral dosing. On an average of six women investigated this figure is 54±20%.
Re-increases in drug serum levels show re-absorption of dose parts collected in the bile fluid and subsequently secreted triggered by lunch.

PR = biological target: T2, PR (Homo sapiens, UniProt P06401); conditions: cited from earlier work
T2 sequence (P06401 1-933): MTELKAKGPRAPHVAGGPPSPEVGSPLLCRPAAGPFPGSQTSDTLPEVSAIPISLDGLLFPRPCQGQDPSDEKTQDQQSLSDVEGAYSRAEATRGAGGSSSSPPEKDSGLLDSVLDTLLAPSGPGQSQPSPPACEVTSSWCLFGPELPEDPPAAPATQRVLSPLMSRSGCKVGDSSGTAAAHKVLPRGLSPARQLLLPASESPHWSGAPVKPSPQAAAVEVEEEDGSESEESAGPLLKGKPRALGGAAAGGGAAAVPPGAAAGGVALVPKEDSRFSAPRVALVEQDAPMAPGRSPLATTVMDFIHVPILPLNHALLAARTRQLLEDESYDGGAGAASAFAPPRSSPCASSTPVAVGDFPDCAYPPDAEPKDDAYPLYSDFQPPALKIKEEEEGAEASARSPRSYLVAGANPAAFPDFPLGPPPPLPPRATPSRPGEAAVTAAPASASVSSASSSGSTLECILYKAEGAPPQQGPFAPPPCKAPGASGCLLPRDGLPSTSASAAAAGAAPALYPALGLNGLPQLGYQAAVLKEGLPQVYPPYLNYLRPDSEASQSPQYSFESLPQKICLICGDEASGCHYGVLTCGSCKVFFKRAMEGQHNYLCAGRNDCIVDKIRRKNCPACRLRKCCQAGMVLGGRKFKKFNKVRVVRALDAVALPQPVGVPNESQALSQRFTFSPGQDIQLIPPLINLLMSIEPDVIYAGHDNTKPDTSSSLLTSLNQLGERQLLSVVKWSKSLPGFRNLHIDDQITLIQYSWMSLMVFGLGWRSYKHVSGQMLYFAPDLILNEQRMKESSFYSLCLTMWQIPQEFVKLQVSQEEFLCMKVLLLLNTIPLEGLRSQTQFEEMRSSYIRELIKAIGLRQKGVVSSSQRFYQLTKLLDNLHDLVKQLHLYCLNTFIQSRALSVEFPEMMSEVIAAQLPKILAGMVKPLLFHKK

GR = biological target: T3, GR (Homo sapiens, UniProt P04150); conditions: cited from earlier work
T3 sequence (P04150 1-777): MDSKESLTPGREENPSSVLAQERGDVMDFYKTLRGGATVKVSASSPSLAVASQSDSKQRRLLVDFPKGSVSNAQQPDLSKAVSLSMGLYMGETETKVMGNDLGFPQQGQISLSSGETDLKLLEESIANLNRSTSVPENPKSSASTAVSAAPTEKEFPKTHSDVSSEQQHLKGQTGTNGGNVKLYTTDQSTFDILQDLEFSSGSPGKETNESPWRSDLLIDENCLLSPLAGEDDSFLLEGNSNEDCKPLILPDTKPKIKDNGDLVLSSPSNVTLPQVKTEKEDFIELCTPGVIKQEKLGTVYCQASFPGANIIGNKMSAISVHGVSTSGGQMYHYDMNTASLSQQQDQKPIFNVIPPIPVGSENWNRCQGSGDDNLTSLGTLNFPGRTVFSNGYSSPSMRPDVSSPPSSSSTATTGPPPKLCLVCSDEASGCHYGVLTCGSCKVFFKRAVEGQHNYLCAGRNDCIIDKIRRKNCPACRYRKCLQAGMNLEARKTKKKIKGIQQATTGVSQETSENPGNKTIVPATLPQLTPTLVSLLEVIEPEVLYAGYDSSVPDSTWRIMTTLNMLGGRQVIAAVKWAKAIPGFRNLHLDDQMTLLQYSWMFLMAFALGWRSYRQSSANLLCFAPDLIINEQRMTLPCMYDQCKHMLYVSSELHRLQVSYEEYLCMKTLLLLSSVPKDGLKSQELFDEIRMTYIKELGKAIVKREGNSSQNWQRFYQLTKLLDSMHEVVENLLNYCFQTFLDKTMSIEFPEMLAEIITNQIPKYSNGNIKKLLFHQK

[3] = cited from earlier work
[4] = low pH-values; cited from earlier work
[5] = cited from earlier work; remark: listed apart in the source
SHBG or CBG serum levels = conditions: in vivo; cited from earlier work
SHBG = biological target: T4, SHBG (Homo sapiens, UniProt P04278); conditions: cited from earlier work
T4 sequence (P04278 30-402): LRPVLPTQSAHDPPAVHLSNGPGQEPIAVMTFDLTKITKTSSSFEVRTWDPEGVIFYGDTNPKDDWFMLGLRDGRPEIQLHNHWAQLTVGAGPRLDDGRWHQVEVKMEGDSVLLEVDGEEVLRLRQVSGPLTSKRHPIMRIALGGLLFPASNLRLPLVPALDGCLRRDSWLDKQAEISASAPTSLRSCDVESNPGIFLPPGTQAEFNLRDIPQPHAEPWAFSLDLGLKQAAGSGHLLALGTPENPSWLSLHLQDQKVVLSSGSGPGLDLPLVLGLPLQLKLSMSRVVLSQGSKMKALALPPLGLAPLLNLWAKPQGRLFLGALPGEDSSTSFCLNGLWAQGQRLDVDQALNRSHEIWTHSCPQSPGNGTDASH

[6] = 3 mg oral, daily repeated administration
[7] = single oral intake of 3 mg DRSP

metabolism by CYP isoenzymes (CYP isoenzymes; listed as 8-Prenylnaringenin): high metabolic stability
solubility ([1]; higher at higher pH-values, low at lower pH-values): pH-dependent
drug dissolution in vitro ([1]; pH 1): slow
drug dissolution in vitro ([1]; pH 6.8): fast
degree of metabolization ([2]; oral): less than 60 % of dose
oral absorption ([2]; oral): complete
pre-systemic elimination (first-liver-pass excretion) ([2]; oral): about 55 % of dose
CV of mean AUC ([2]; oral dose 250 mg): 42%
CV of mean AUC ([2]; oral dose 750 mg): 29%
percentage of the area under the second peak of total AUC (dose parts undergoing pre-systemic elimination) ([2]; oral, average of six women): 54±20%
Compound: CC(C)=CCc1c(O)cc(O)c2c1OC(c1ccc(O)cc1)CC2=O (stereo not shown) [Example 8-PN, 5,7-Dihydroxy-2-(4-hydroxyphenyl)-8-(3-methylbut-2-enyl)-chroman-4-on]
metabolism by CYP isoenzymes (CYP isoenzymes): surprisingly low extent of metabolism; also recorded: high metabolic stability
binding or activation of the AR (AR): devoid of binding or activation
anti-estogenic activity (estrogen receptor): without any anti-estogenic activity
binding or activation of the PR (PR): devoid of binding or activation
binding or activation of the GR (GR): devoid of binding or activation

Compound: C[C@]12CC[C@@H]3c4ccc(O)cc4CC[C@H]3[C@@H]1CC[C@@H]2O [Example E2, 17β-estradiol]
coefficient of variation (CV) of the mean AUC ([3]; oral 2 mg E2, N=14): 127%
coefficient of variation (CV) of the mean AUC ([3]; oral 4 mg E2, N=14): 91%
coefficient of variation (CV) of the mean AUC ([3]; oral 8 mg E2, N=14): 70%
oral bioavailability ([3]; oral): 1-3 % of dose

Compound: C[C@]12CCC(=O)C=C1[C@@H]1C[C@@H]1[C@H]1[C@@H]3[C@@H]4C[C@@H]4[C@@]4(CCC(=O)O4)[C@@]3(C)CC[C@@H]12 [DRSP, Drospirenone]
stability (opening of carbolactone ring to the inactive acid) [4]: sensitive to low pH-values
AUC [5, 6]: about 920 ng×h/ml
maximum serum level [5, 6]: about 80 ng/ml
apparent volume of distribution ([5]; in vivo): 4 L/kg
disposition half-life ([5]; in vivo): 31 h
metabolism ([5]; mainly by CYP3A4): only slightly metabolized
oral absorption ([5]; oral): complete
AUC0-24h [5, 7]: 288 ng·h/mL
maximum serum levels [5, 7]: 37 ng/mL
time at which maximum serum levels were reached [5, 7]: 1.7 h
suppression of EE induced SHBG or CBG serum levels (SHBG or CBG serum levels): does not suppress
binding to SHBG (SHBG): does not bind
